According to PubChem BioAssay (NCI):
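Test compounds were applied to cells in 96-well plates for 48 hours at 5 doses. TGI denotes the concentration required for complete inhibition of growth.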

Assays:
Experiment in all cases: NCI-60 cell line screen, 48 h
NCI-H522 lung = tested on: NCI-H522 lung
NCI-H460 lung = tested on: NCI-H460 lung
NCI-H226 lung = tested on: NCI-H226 lung
HCT-15 colon = tested on: HCT-15 colon
HOP-62 NSCLC = tested on: HOP-62 NSCLC
OVCAR-4 ovarian = tested on: OVCAR-4 ovarian
SNB-19 CNS = tested on: SNB-19 CNS
DLD-1 colon = tested on: DLD-1 colon
SF-539 CNS = tested on: SF-539 CNS
HOP-18 NSCLC = tested on: HOP-18 NSCLC
DMS 273 small cell lung = tested on: DMS 273 small cell lung
COLO 205 colon = tested on: COLO 205 colon
SNB-75 CNS = tested on: SNB-75 CNS
A549 NSCLC = tested on: A549 NSCLC
M14 melanoma = tested on: M14 melanoma
SR leukemia = tested on: SR leukemia
SK-MEL-5 melanoma = tested on: SK-MEL-5 melanoma
OVCAR-5 ovarian = tested on: OVCAR-5 ovarian
ACHN renal = tested on: ACHN renal
LOX IMVI melanoma = tested on: LOX IMVI melanoma
SF-268 CNS = tested on: SF-268 CNS
SK-MEL-2 melanoma = tested on: SK-MEL-2 melanoma
LXFL 529 NSCLC = tested on: LXFL 529 NSCLC
SN12C renal = tested on: SN12C renal
HOP-92 NSCLC = tested on: HOP-92 NSCLC
OVCAR-3 ovarian = tested on: OVCAR-3 ovarian
SW-620 colon = tested on: SW-620 colon
786-0 renal = tested on: 786-0 renal
HT29 colon = tested on: HT29 colon
NCI-H23 lung = tested on: NCI-H23 lung
RPMI-8226 leukemia = tested on: RPMI-8226 leukemia
SK-OV-3 ovarian = tested on: SK-OV-3 ovarian
UACC-257 melanoma = tested on: UACC-257 melanoma
RXF 393 renal = tested on: RXF 393 renal
SNB-78 CNS = tested on: SNB-78 CNS
MOLT-4 leukemia = tested on: MOLT-4 leukemia
KM12 colon = tested on: KM12 colon
SK-MEL-28 melanoma = tested on: SK-MEL-28 melanoma
M19-MEL melanoma = tested on: M19-MEL melanoma
TK-10 renal = tested on: TK-10 renal
CCRF-CEM leukemia = tested on: CCRF-CEM leukemia
HL-60(TB) leukemia = tested on: HL-60(TB) leukemia
SF-295 CNS = tested on: SF-295 CNS
U251 CNS = tested on: U251 CNS
HCT-116 colon = tested on: HCT-116 colon
MALME-3M melanoma = tested on: MALME-3M melanoma
UACC-62 melanoma = tested on: UACC-62 melanoma
KM20L2 colon = tested on: KM20L2 colon
DMS 114 small cell lung = tested on: DMS 114 small cell lung
CAKI-1 renal = tested on: CAKI-1 renal
IGROV1 ovarian = tested on: IGROV1 ovarian
K-562 leukemia = tested on: K-562 leukemia
OVCAR-8 ovarian = tested on: OVCAR-8 ovarian
UO-31 renal = tested on: UO-31 renal

Compound: O=[N+]([O-])c1cc(Cl)ccc1S(=O)(=O)c1ccc(Cl)cc1[N+](=O)[O-]
- TGI (NCI-H522 lung): 29.9 µM
- TGI (NCI-H460 lung): 31.5 µM
- TGI (NCI-H226 lung): 25.1 µM
- TGI (HCT-15 colon): 33 µM
- TGI (HOP-62 NSCLC): 35.9 µM
- TGI (OVCAR-4 ovarian): 37.2 µM
- TGI (SNB-19 CNS): 31.4 µM
- TGI (DLD-1 colon): 29.4 µM
- TGI (SF-539 CNS): 32.7 µM
- TGI (HOP-18 NSCLC): 30.4 µM
- TGI (DMS 273 small cell lung): 27.2 µM
- TGI (COLO 205 colon): 30.7 µM
- TGI (SNB-75 CNS): 29.7 µM
- TGI (A549 NSCLC): 70 µM
- TGI (M14 melanoma): 30.4 µM
- TGI (SR leukemia): 40.3 µM
- TGI (SK-MEL-5 melanoma): 27.7 µM
- TGI (OVCAR-5 ovarian): 34 µM
- TGI (ACHN renal): 29.7 µM
- TGI (LOX IMVI melanoma): 32.5 µM
- TGI (SF-268 CNS): 29.2 µM
- TGI (SK-MEL-2 melanoma): 33 µM
- TGI (LXFL 529 NSCLC): 27.2 µM
- TGI (SN12C renal): 29.1 µM
- TGI (HOP-92 NSCLC): 32.6 µM
- TGI (OVCAR-3 ovarian): 31.1 µM
- TGI (SW-620 colon): 32.6 µM
- TGI (786-0 renal): 28.9 µM
- TGI (HT29 colon): 30.9 µM
- TGI (NCI-H23 lung): 29.2 µM
- TGI (RPMI-8226 leukemia): > 100 µM
- TGI (SK-OV-3 ovarian): 29.4 µM
- TGI (UACC-257 melanoma): 26.7 µM
- TGI (RXF 393 renal): 29.5 µM
- TGI (SNB-78 CNS): 34.7 µM
- TGI (MOLT-4 leukemia): 84.4 µM
- TGI (KM12 colon): 27.7 µM
- TGI (SK-MEL-28 melanoma): 32 µM
- TGI (M19-MEL melanoma): 28.7 µM
- TGI (TK-10 renal): 31.5 µM
- TGI (CCRF-CEM leukemia): > 100 µM
- TGI (HL-60(TB) leukemia): 58 µM
- TGI (SF-295 CNS): 29 µM
- TGI (U251 CNS): 34.5 µM
- TGI (HCT-116 colon): 29.2 µM
- TGI (MALME-3M melanoma): 26.6 µM
- TGI (UACC-62 melanoma): 31 µM
- TGI (KM20L2 colon): 31.3 µM
- TGI (DMS 114 small cell lung): 23.9 µM
- TGI (CAKI-1 renal): 33.9 µM
- TGI (IGROV1 ovarian): 29.4 µM
- TGI (K-562 leukemia): > 100 µM
- TGI (OVCAR-8 ovarian): 29.5 µM
- TGI (UO-31 renal): 30.9 µM
